Assay results from patent EP4810052A2, “HCRHR2 SELECTIVE POLYPEPTIDES” (Gubra A/S, priority 2023, dated 2026).
Marks after values point to notes of the source that are not given here. Starred links: 1 amine or outer side, 2 acyl side, 3 side chain; linkers in the order of their positions; H or OH if unused. Non-standard residues stand in square brackets, D forms with d. Residues, ends and D or L forms follow the SMILES beside them. Groups on a side chain read outwards from the residue. *: point of attachment. C20 diacid = O=C(O)CCCCCCCCCCCCCCCCCCC(=O)*; γGlu = O=C(O)[C@H](CCC(=O)[*:2])N[*:1]; NMeI = CC[C@H](C)[C@H](NC)C(=O)O; Nle = CCCC[C@H](N)C(=O)O; AEEA = NCCOCCOCC(=O)O; Aib = CC(C)(N)C(=O)O

Legend:
[1] = Dynamic Light Scattering (DLS) of peptide oligomerisation/particle formation; format: physicochemical; details: average of three replica
Description: Samples were prepared by dissolving 800 nmol of each peptide in 400 µl 50 mM phosphate pH 8.0 to a concentration of 2000 µM (ca 10 mg/ml). After fully dissolution for 2 hours on a rocking table, samples were adjusted to pH 7.5 and filtrated through a 0.2 µm Whatman Anotop filter. Comparators were commercially available liraglutide drug product (Victoza®, Novo Nordisk) pH 8.2, and an aliquot of this drug product adjusted to pH 6.7. These samples were filtrated through a 0.02 µm Whatman Anotop filter.
Samples were pipetted as triplicate of 30 µl to an Aurora 384 well microtiter plate, which was centrifuged for 2 minutes at 2200 rpm and then sealed with a Thermo sealing tape 235307. DLS measurements were done in a Wyatt DynaPro platereader III with the following parameters:
The microtiter plate was incubated in a Grant-bio Thermo Shaker PHMP-4 at 40°C with 700 rpm continuous shaking before subsequent DLS measurements. Data analysis was done using Wyatt Dynamics software ver. 7.10.1.21.
Samples were prepared and measured as described in procedure. The hydrodynamic radii (Rh) and associated polydispersity (PD) resulting from cumulant analysis (assuming one species) are shown in the Table 8 as averages of three replica. T0 indicates the measurement at time zero after sample preparation; T5 indicates the measurements of five days of incubation as described above.

hCRHR2a = biological target: T1, hCRHR2a (Homo sapiens, UniProt Q13324); assay: cAMP potency, transiently transfected CHO-K1 cells, hCRHR2a; format: cell-based; details: transiently transfected CHO-K1, average n=3; read-out: Transient cell system EC50 (nM) hCRHR 2a
T1 construct: DYK (FLAG); host or cells: CHO-K1, transiently transfected
T1 sequence (Q13324 1-411): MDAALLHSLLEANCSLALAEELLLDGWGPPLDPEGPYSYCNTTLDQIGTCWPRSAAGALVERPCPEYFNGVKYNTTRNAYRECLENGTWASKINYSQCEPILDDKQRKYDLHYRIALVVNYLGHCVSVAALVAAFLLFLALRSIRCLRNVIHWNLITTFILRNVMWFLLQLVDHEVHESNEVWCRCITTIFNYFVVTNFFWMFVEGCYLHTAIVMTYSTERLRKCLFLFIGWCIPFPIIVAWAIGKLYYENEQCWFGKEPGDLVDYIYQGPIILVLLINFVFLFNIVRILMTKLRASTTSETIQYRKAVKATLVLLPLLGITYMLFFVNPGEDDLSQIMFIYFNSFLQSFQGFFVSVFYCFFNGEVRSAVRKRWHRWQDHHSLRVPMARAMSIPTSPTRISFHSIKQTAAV

[2] = Size exclusion chromatography for high molecular weight products (HMWP); format: physicochemical; details: for HMWP formation (SEC analysis) T14-T0 (%): 14 days; for HMWP formation (SEC analysis) T28-T0 (%): 28 days
Description: Dissolved samples were incubated for at least 2 h at room temperature on a rocking table. The main peak purity at time zero (T0) was determined using reversed phase chromatography. The samples were incubated at 40°C for 14 days (T14) and 28 days (T28). The samples were analyzed with reversed phase chromatography and size exclusion chromatography.
Size exclusion chromatography (SEC) was used as an analysis for the formation of high molecular weight products (HMWP, covalent dimers, trimers etc.,). SEC analyses was performed on Thermo Dionex Ultimate UHPLC system with UV detection at 215 nm) equipped with a SEC column (Waters BEH 125Å, 1.7 µm, 300mm x 4.6). Analysis was performed by isocratic elution using 60% buffer B (0.1% TFA in 5:95 H2O: acetonitrile) in buffer A (0.1% TFA in 95:5 H2O: acetonitrile) at a column temperature of 60° C over 20 min. Flowrate was 0.3 mL/min.
Chromatograms were integrated as HMWP (all peaks eluting before the main peak), main peak (assuming this is monomeric peptide) and if relevant LMWP (low molecular weight products, all peaks eluting after main peak). The amount of HMWP was reported as area relative to total area in percent.

mCRHR2 = biological target: T2, mCRHR2 (Mus musculus, UniProt Q60748); assay: cAMP potency, transiently transfected CHO-K1 cells, mCRHR2; format: cell-based; details: transiently transfected CHO-K1, average n=3; read-out: Transient cell system EC50 (nM) mCRH R2
T2 construct: DYK (FLAG); host or cells: CHO-K1, transiently transfected
T2 sequence (Q60748 1-431 isoform Q60748-2): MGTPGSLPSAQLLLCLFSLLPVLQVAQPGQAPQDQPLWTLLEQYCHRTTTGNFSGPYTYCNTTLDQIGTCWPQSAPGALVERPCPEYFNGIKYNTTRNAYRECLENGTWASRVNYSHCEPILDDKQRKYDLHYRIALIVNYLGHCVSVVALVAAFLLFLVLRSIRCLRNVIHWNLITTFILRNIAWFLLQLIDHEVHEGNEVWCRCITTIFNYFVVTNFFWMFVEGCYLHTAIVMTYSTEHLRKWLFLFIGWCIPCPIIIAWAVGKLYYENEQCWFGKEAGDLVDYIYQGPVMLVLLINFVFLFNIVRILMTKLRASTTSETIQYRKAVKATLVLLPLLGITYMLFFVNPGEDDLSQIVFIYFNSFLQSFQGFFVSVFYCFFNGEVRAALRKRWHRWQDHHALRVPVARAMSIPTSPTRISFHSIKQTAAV
Description: Selected peptides were tested for potency on different species (mouse, rat, porcine) using transiently transfected CHO-K1 cells using the general procedure.

[3] = Body mass and body fat content in mouse model of diet-induced obesity (DIO); format: in vivo; details: DIO mice; for relative body weight: 28 days, compared to vehicle; for Blood HbA1c / M. Gastrocnemius / M. Soleus / Body weight at termination / Fat mass change from baseline / Lean mass change from baseline / Relative body weight change at termination: Table 17 study; for Body weight at termination / Fat mass change from baseline / Lean mass change from baseline / Relative body weight change at termination: ± SEM
Description: SEQ ID NO: 3, SEQ ID NO: 6, SEQ ID NO: 238, SEQ ID NO: 16 and SEQ ID NO: 215 were assessed for their ability to reduce body mass and body fat content in a mouse model of diet-induced obesity (DIO).
Male C57BL/6JRj mice were obtained from JanVier (JanVier Labs, France) at 5 weeks of age. The animals were group-housed during obesity induction and then single housed 2 weeks prior to study start. They were housed under a 12/12 h dark-light cycle, light off at 3 PM. Room temperature was controlled to 22°C ± 1°C, with 60 % ± 20% humidity. For 22-23 weeks prior to treatment start and throughout the study, the animals had ad libitum access to high-fat diet (60% kcal fat, D12492, Research Diets) and tap water.
The animals were randomized according to lean mass (EchoMRI) and body weight. Animals were dosed subcutaneously […] for 30-32 days. In study 1, the animals were dosed with vehicle or SEQ ID NO: 3 (10, 30, 60 or 100 nmol/kg). In study 2, the animals were dosed with vehicle or SEQ ID NO: 6 (10 or 30 nmol/kg), SEQ ID NO: 238 (10 or 30 nmol/kg), SEQ ID NO: 16 (10 or 30 nmol/kg), SEQ ID NO: 215 (10 or 30 nmol/kg) or SEQ ID NO: 3 (30 nmol/kg).
Body weight and food intake were recorded daily until day 28 and body composition evaluated on day 26 using EchoMRI. At termination, blood for HbA1c analyses were collected and M. gastrocnemius and M. soleus were weighed.
Statistical significance was evaluated using One-way analysis of variance with Dunnett's multiple comparison test. P < 0.05 was considered statistically significant.

[4] = T0, time zero after sample preparation
[5] = T5, five days incubation at 40°C with continuous shaking

CCCC[C@H](NC(=O)[C@@H](NC(=O)[C@H](CCC(=O)O)NC(=O)C(C)(C)NC(=O)[C@H](CC(N)=O)NC(=O)[C@@H](NC(=O)[C@H](CCCCNC(=O)COCCOCCNC(=O)COCCOCCNC(=O)CC[C@H](NC(=O)CC[C@H](NC(=O)CCCCCCCCCCCCCCCCCCC(=O)O)C(=O)O)C(=O)O)NC(=O)[C@H](C)NC(=O)[C@H](CCC(N)=O)NC(=O)[C@H](CCC(=O)O)NC(=O)[C@H](CCCNC(=N)N)NC(=O)[C@H](C)NC(=O)[C@H](C)NC(=O)[C@H](CCCNC(=N)N)NC(=O)[C@H](C)NC(=O)[C@H](CCCNC(=N)N)NC(=O)[C@H](C)NC(=O)[C@H](CCC(N)=O)NC(=O)[C@H](CO)NC(=O)[C@H](CC(C)C)NC(=O)[C@H](CC(C)C)NC(=O)[C@@H](NC(=O)[C@H](CCC(N)=O)NC(=O)[C@H](CC(C)C)NC(=O)[C@H](CC(C)C)NC(=O)CNC(=O)[C@@H](NC(=O)[C@@H]1CCCN1C(=O)[C@@H](NC(=O)[C@H](CC(=O)O)NC(=O)[C@H](CC(C)C)NC(=O)[C@H](CO)NC(=O)[C@H](CC(C)C)NC(=O)[C@@H](NC(=O)[C@@H](NC)[C@@H](C)CC)C(C)C)C(C)C)[C@@H](C)CC)[C@@H](C)CC)[C@@H](C)O)[C@@H](C)CC)C(=O)N[C@@H](C)C(=O)N[C@@H](CCC(=O)O)C(=O)N[C@H](C(N)=O)C(C)C [SEQ ID NO: 215] (H-[NMeI]VLSLDVPIGLLQILLSQARARAAREQAK([AEEA-AEEA-γGlu-γGlu-C20 diacid])TN[Aib]EI[Nle]AEV-NH2)
PD (%) [1, 4]: 10.8%
Rh (nm) [1, 4]: 5.6 nm
PD (%) [1, 5]: 15.1%
Rh (nm) [1, 5]: 5.9 nm
EC50 (hCRHR2a): 0.013 nM
HMWP formation (SEC analysis) T14-T0 (%) ([2]; pH 7.0, 40°C): -0.3%
HMWP formation (SEC analysis) T28-T0 (%) ([2]; pH 7.0, 40°C): -0.3%
HMWP formation (SEC analysis) T14-T0 (%) ([2]; pH 7.5, 40°C): 0.1%
HMWP formation (SEC analysis) T28-T0 (%) ([2]; pH 7.5, 40°C): 0.3%
HMWP formation (SEC analysis) T14-T0 (%) ([2]; pH 8.0, 40°C): 0.0%
HMWP formation (SEC analysis) T28-T0 (%) ([2]; pH 8.0, 40°C): -0.1%
EC50 (mCRHR2): 0.004 nM
body weight loss compared to SEQ ID NO: 16 ([3]; 10 nmol/kg, Fig. 5): relative higher body weight loss
relative body weight [3]: prolonged dose-dependent reduction
relative body weight ([3]; listed as 215): reduce body weight
Blood HbA1c ([3]; 10 nmol/kg): 4.3 ± 0.1 %
M. Gastrocnemius ([3]; 10 nmol/kg): 0.19 ± 0.002* ** g
M. Soleus ([3]; 10 nmol/kg): 0.012 ± 0.0005 g
Body weight at termination ([3]; 10 nmol/kg): 40.5 ± 1.2 g
Fat mass change from baseline ([3]; 10 nmol/kg): -8.7 ± 0.5 g
Lean mass change from baseline ([3]; 10 nmol/kg): 0.1 ± 0.5 g
Relative body weight change at termination ([3]; 10 nmol/kg): 85.5 ± 1.3 %
Blood HbA1c ([3]; 30 nmol/kg): 4.4 ± 0.03 %
M. Gastrocnemius ([3]; 30 nmol/kg): 0.18 ± 0.003 g
M. Soleus ([3]; 30 nmol/kg): 0.012 ± 0.0005 g
Body weight at termination ([3]; 30 nmol/kg): 38.9 ± 1.1 g
Fat mass change from baseline ([3]; 30 nmol/kg): -9.9 ± 0.7 g
Lean mass change from baseline ([3]; 30 nmol/kg): -0.5 ± 0.3 g
Relative body weight change at termination ([3]; 30 nmol/kg): 81.8 ± 1.9 %
